Literature values as cited in patent US20220220558A1, “METHODS AND SYSTEMS FOR PROGNOSIS OF A PATIENT'S RESPONSE TO TREATMENT OF ANDROGENETIC SKIN DISORDERS” (priority 2008, published 2022).

System: female androgenetic alopecia
Conditions: clinical trials

In the case of `CC(C)(C)NC(=O)[C@H]1CC[C@H]2[C@@H]3CC[C@H]4NC(=O)C=C[C@]4(C)[C@H]3CC[C@]12C` [finasteride], the “affect on hair re-growth in women” value is given as “statistically not significant”.
